Assay results as given in paper PMC3475717, “A Spiroligomer α-Helix Mimic That Binds HDM2, Penetrates Human Cells and Stabilizes HDM2 in Cell Culture” (PLoS ONE, 2012).
“And” between values parts separate entries of the source, which are not always exact repeats. Equal values may be shown once. “Also recorded” adds a separate entry of the source.

Columns and labels:
[1] = target: T1, HDM2 (Homo sapiens, UniProt Q00987); experiment: competition fluorescence polarization experiment (displacement of Flp4 peptide); format: binding; settings: Flp4 at 10 nM with 2 µM HDM2, series of concentrations of spiroligomer; read-out: Ki against Flp4 peptide
T1 construct: A fusion protein consisting of residues 1-140; unnamed fusion partner ('fusion protein'); made in house; host or cells: E. coli BL21
T1 sequence (Q00987 1-140): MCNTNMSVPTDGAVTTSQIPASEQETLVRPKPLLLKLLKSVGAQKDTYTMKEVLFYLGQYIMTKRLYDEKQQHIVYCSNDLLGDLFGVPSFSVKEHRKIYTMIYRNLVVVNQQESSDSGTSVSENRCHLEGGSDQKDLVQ

[2] = target: T1, HDM2; experiment: as above; format: binding; settings: hDM2 0.4 μM, Flp4 10 nM, three independent trials
Experimental: Competition Fluorescence Polarization Experiments. To assess the ability of oligomer 2 to […]
competition experiments were undertaken. hDM2 (0.4 μM) and Flp4 control peptide (10 nM) were incubated at room temperature for 30 minutes in binding buffer, followed by the addition of serial dilutions of oligomer 2 (final conc. 400 μM to 0.194 μM). The binding experiments were incubated for a further 30 minute time period, followed by recording of the polarization data. See […]
Bis- Pept ide ( nM ) Po lar A ( mP)
Table S.6. Table of raw values used for the plot of the competition binding experiment; X values are oligomer 2 concentration (in nM) and Y values are polarization (in millipolarization units); data from three independent trials is shown.

[3] = test system: HDM2, p53Y220C and p21 in Huh7 cells; experiment: Western blot analysis of HDM2, p53 and p21; format: cell-based, human
Experimental: Huh7 cells were incubated with spiroligomer 1 and Nutlin-3 in media at 2, 5, 10 and 20 µM for 17 hours at 37°C. […] Huh7 cells were then incubated with 1 at 15 µM and cells were harvested at 2, 4, 6, 8, 12 and 24 hours. […]
(§1) Cell Culture and Treatment. HepG2 (expressing wild-type p53) and Huh7 (expressing mutant p53) cell lines were purchased from the American Type Culture Collection (ATCC) and cultured as monolayers in Dulbecco’s modified Eagle’s medium (DMEM) (Invitrogen) supplemented with 100 mM nonessential amino acid solution, 100 mM sodium pyruvate, 100 U/mL penicillin, 100 μg/mL streptomycin, and 10% heat inactivated fetal bovine serum (FBS) (all from Hyclone).
(§2) Cells were maintained at 37° C and 5% CO2 and were treated with media that contained 0.5%
FBS. Nutlin-3 (Sigma) was dissolved in 0.01% DMSO (Sigma).
Both nutlin-3 and spiroligomers were added into the medium for final concentrations of 2 µM, 5 µM, 10 µM and 20 µM for 24 hours. For the western blot experiments detailed below, the time length for incubation with bis-peptide was 17 hours. […]
Western Blotting. For protein extraction, cells were lysed in cell lysis buffer (Cell Signaling) with a protease inhibitor cocktail for 20 minutes on ice. Protein extracts (50 μg) were separated by SDS-PAGE electrophoresis, transferred to nitrocellulose membranes (Schleicher & Schuell), and incubated overnight with primary antibodies to p53, HDM2, p21, and β-actin (all from Santa Cruz Biotechnology). The blots were developed using ECL plus detection system (Amersham Biosciences) and exposed to Kodak imaging films (Kodak BioMax). Images were quantified using ImageJ software (NIH).
Figure S.5. Detection of bis-peptide 1 and Nutlin-3 in HepG2 (left) and Huh7 (right) cells. The concentration of each compound is given in μM and the three proteins (HDM2, p53 and p21) bands are […]

[4] = test system: HepG2 cells; experiment: cell penetration, fluorescence and confocal microscopy; active vs. passive transport; format: cell-based, human; settings: HepG2, 37°C, 5 µM, 3.75 hours
Experimental: as §1, §2
(§3) FBS. Nutlin-3 (Sigma) was dissolved in 0.01% DMSO (Sigma). This concentration of DMSO did not affect the cell phenotype. Both nutlin-3 and spiroligomers were added into the medium for final concentrations of 2 µM, 5 µM, 10 µM and 20 µM for 24 hours. For the western blot experiments detailed below, the time length for incubation with bis-peptide was 17 hours.
(§4) Fluorescence and Confocal Microscopy. Fluorescence and confocal microscopy were applied to live and fixed cells. Cells were grown on glass chambers and fixed with ice-cold 95:5 ethanol/acetic acid for 10 minutes at -20 °C. Sections were washed with PBS and mounted in Vectashield aqueous mounting medium with DAPI (Vector laboratories). Fluorescent specimens were analyzed using an ECLIPSE Ti microscope (Nikon), lenses with hardened […]
(1 picture or pasted object on this page, not shown here) […]
filters (Nikon), and a Nikon DS-Fi1 camera, which was operated by NIS Elements computer software (Nikon). Confocal microscopy was performed with a Leica SP-1 microscope, with illumination at 488 nm and spectral detection. […]
Mathematical model described8 and MxPro software (Stratagene) were used to process PCR data. End-point PCR reactions were assayed with PCR Master Mix (Promega). Samples were amplified in 34 cycles; each cycle consisted of 30 sec of denaturation at 95 °C, 30 sec of annealing at 60 °C, and 30 sec of elongation at 72 °C. After 34 cycles, samples were subjected to final elongation for 5 minutes at 72 °C. […]
fluorescence in the images.

[5] = test system: Huh7 cells; experiment: cell penetration, fluorescence and confocal microscopy; format: cell-based, human; settings: Huh7, 37°C
Experimental: Table S.7. Parameters used for the non-linear fit for the plot of the competition binding experiment.
as §1, §2, §3
as §4, with “Sections were washed with PBS and mounted in Vectashield aqueous mounting medium with DAPI (Vector laboratories).” left out
Western Blotting. […] Images were quantified using ImageJ software (NIH). […]

CC(C)CN1C(=O)C2CC3(CN2C(=O)C12CC1C(=O)N(Cc4ccc(Cl)c(Cl)c4)C4(CC5C(=O)NC(CCc6ccccc6)C(=O)N5C4)C(=O)N1C2)NC(=O)C(CCC(=O)O)NC3=O (stereo not shown) [Compound 2] was tested, and the Ki [1] was 5 µM, the “polarization of Flp4 in competition” value ([2]; oligomer 194.8242 nM) was 115. 56 mP and 119. 19 mP and 107. 52 mP and the “polarization of Flp4 in competition” value ([2]; oligomer 389.6484 nM) was 109. 71 mP and 120. 5 mP and 117. 89 mP. The “polarization of Flp4 in competition” value ([2]; oligomer 779.2969 nM) was 107. 07 mP and 119. 05 mP and 110. 95 mP, the “polarization of Flp4 in competition” value ([2]; oligomer 1558.594 nM) was 102. 29 mP and 112. 93 mP and 113. 76 mP and the “polarization of Flp4 in competition” value ([2]; oligomer 3117.188 nM) was 103. 88 mP and 103. 29 mP and 109. 28 mP. The “polarization of Flp4 in competition” value ([2]; oligomer 6234.375 nM) was 97.23 mP and 94.66 mP and 93.84 mP, the “polarization of Flp4 in competition” value ([2]; oligomer 12468.75 nM) was 91.7 mP and 86.62 mP and 91.97 mP and the “polarization of Flp4 in competition” value ([2]; oligomer 24937.5 nM) was 88.82 mP and 82 mP and 88.53 mP. For the same compound, the “polarization of Flp4 in competition” value ([2]; oligomer 49875 nM) was 86.21 mP and 84.81 mP and 86.83 mP, the “polarization of Flp4 in competition” value ([2]; oligomer 99750 nM) was 78.06 mP and 93.73 mP and 94.13 mP and the “polarization of Flp4 in competition” value ([2]; oligomer 199500 nM) was 84.38 mP and 85.9 mP and 80.84 mP. For the same compound, the “polarization of Flp4 in competition” value ([2]; oligomer 399000 nM) was 75.41 mP and 67.78 mP and 78.26 mP.

For COc1ccc(C2=N[C@@H](c3ccc(Cl)cc3)[C@@H](c3ccc(Cl)cc3)N2C(=O)N2CCNC(=O)C2)c(OC(C)C)c1 [Nutlin-3], the “HDM2 levels relative to control cells” value [3] was “not seen; also recorded: very weak stabilization effect on HDM2”, the “HDM2 levels with time” value [3] was “only very small changes; also recorded: very little effect on HDM2” and the p53Y220C levels [3] was “No visible effect”. The “p53Y220C levels with time” value [3] was “no observable effect on p53Y220C levels”.

With O=C1OC2(c3ccc(O)cc3Oc3cc(O)ccc32)c2ccccc21 [fluorescein, reference compound] the “uptake of fluorescence (control)” value [4] was “no visible uptake of fluorescence; also recorded: failed to produce any fluorescence” and the “uptake of fluorescence (control)” value [5] was “no visible uptake of fluorescence”.
